Results reported in PMC10536063 (ACS Omega, 2023).

Assays:
[1] = test system: MCF-10A (normal breast) cells; assay: MTT cytotoxicity bioassay against normal MCF-10A cells; format: cell-based; details: for IC50: Homo sapiens, MCF-10A, 48 h, read-out: IC50 ± SD, MCF-10A; for cytotoxicity versus normal MCF-10A cells (in words): MTT
[2] = test system: MCF-7 (breast cancer cells); assay: MTT cytotoxicity bioassay against MCF-7; format: cell-based, human; details: read-out: IC50 ± SD, MCF-7, 48 h, mean ± SD, n = 3
[3] = molecular target: EGFR kinase (Homo sapiens, UniProt P00533); assay: EGFR-TK kinase inhibitory assay; format: biochemical
[4] = molecular target: CDK-2 kinase (Homo sapiens, UniProt P24941); assay: CDK-2 luminescence kinase inhibitory assay; format: biochemical

Chain of EGFR kinase (P00533 25-1210): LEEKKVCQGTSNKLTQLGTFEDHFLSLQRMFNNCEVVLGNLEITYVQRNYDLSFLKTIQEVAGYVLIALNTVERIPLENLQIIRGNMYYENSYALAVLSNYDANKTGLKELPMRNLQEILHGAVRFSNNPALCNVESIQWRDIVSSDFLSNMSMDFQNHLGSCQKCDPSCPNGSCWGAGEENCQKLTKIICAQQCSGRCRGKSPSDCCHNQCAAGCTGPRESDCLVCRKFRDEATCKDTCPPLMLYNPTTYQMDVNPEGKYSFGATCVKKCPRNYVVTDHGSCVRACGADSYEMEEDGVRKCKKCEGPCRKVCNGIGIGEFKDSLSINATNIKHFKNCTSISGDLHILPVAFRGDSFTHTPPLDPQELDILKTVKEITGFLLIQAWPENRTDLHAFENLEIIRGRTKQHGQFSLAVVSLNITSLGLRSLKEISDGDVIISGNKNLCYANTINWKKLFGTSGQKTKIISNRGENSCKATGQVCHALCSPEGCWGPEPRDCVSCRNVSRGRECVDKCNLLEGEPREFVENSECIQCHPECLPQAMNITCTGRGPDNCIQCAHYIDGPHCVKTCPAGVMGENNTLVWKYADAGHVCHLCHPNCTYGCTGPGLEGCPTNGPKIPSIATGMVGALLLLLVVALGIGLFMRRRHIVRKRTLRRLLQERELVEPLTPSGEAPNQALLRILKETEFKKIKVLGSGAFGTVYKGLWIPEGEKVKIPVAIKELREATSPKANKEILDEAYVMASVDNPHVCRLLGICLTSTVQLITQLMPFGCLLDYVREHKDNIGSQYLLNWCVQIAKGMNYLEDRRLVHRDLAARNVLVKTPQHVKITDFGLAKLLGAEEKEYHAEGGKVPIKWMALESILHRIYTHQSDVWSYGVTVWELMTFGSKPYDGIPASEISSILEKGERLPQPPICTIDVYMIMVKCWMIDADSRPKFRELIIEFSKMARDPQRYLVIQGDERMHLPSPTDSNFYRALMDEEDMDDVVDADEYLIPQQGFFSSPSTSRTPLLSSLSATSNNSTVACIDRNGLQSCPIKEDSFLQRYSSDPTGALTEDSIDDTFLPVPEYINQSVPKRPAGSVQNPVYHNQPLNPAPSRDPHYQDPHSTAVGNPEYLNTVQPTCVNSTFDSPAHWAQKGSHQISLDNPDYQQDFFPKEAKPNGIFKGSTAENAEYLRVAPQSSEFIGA

| IC50 [3] [µM] | IC50 [4] [µM] | SMILES | IC50 [1] [µM] | IC50 [2] [µM] | cytotoxicity versus normal MCF-10A cells (in words) [1] |
| --- | --- | --- | --- | --- | --- |
| – | – | O=C(c1ccc2ccccc2c1)c1cn(-c2ccccc2)nc1C(=O)CBr [Compound 2, 3-Bromoacetyl-4-(2-naphthoyl)-1-phenyl-1H-pyrazole] | 37.5 ± 1.9 | – | – |
| – | – | O=C(c1ccc2ccccc2c1)c1cn(-c2ccccc2)nc1C1=Nn2cnnc2SC1 [Compound 4a, 6-(4-(2-Naphthoyl)-1-phenyl-1H-pyrazol-3-yl)-7H-[1,2,4]triazolo[3,4-b][1,3,4]thiadiazine] | ≥ 50 | – | – |
| 0.0717 ± 0.0021 | 0.114 ± 0.0029 | O=C(c1ccc2ccccc2c1)c1cn(-c2ccccc2)nc1C1=Nn2c(nnc2-c2ccccc2)SC1 [Compound 4b, 3-Phenyl-6-(4-(2-naphthoyl)-1-phenyl-1H-pyrazol-3-yl)-7H-[1,2,4]triazolo[3,4-b][1,3,4]-thiadiazine] | ≥ 50 | 3.16 ± 0.29 | safe |
| 0.0896 ± 0.0024 | 0.165 ± 0.00314 | O=C(c1ccc2ccccc2c1)c1cn(-c2ccccc2)nc1C1=Nn2c(S)nnc2SC1 [Compound 4c, 6-(4-(2-Naphthoyl)-1-phenyl-1H-pyrazol-3-yl)-7H-[1,2,4]triazolo[3,4-b][1,3,4]thiadiazin-3-thiol] | 46.7 ± 1.7 | – | safe |
| – | – | O=C(c1ccc2ccccc2c1)c1cn(-c2ccccc2)nc1C1=Nn2c(SCCSc3nnc4n3N=C(c3nn(-c5ccccc5)cc3C(=O)c3ccc5ccccc5c3)CS4)nnc2SC1 [Compound 8a, 1,2-Bis((6-(4-(2-naphthoyl)-1-phenyl-1H-pyrazol-3-yl))-7H-[1,2,4]triazolo[3,4-b][1,3,4]-thiadiazin-3-ylthio)ethane] | 38.9 ± 0.89 | – | – |
| – | – | O=C(c1ccc2ccccc2c1)c1cn(-c2ccccc2)nc1C1=Nn2c(SCCCSc3nnc4n3N=C(c3nn(-c5ccccc5)cc3C(=O)c3ccc5ccccc5c3)CS4)nnc2SC1 [Compound 8b, 1,3-Bis((6-(4-(2-naphthoyl)-1-phenyl-1H-pyrazol-3-yl))-7H-[1,2,4]triazolo[3,4-b][1,3,4]-thiadiazin-3-ylthio)propane] | 29.6 ± 0.8 | – | – |
| – | – | O=C(c1ccc2ccccc2c1)c1cn(-c2ccccc2)nc1C1=Nn2c(nnc2SCc2ccccc2CSc2nnc3n2N=C(c2nn(-c4ccccc4)cc2C(=O)c2ccc4ccccc4c2)CS3)SC1 [Compound 10, 1,2-Bis((6-(4-(2-naphthoyl)-1-phenyl-1H-pyrazol-3-yl))-7H-[1,2,4]triazolo[3,4-b][1,3,4]-thiadiazin-3-ylthiomethyl)benzene] | 31.2 ± 0.9 | – | – |
| – | – | C#Cc1cccc(Nc2ncnc3cc(OCCOC)c(OCCOC)cc23)c1 [Erlotinib, reference compound] | ≥ 50 | – | – |
